From US20220088024A1, “METHODS FOR TREATING CANCER USING TOZADENANT” (Biotie Therapies, Inc., priority 2018, published 2022)
Where “and” joins values, the source holds several entries; their conditions need not be identical. Identical values can stand only once.

Tests used:
[1] = tested on: B16F10 CD73 melanoma metastases; experiment: Example 9: number of lung tumor metastases in the B16F10 CD73 tumor mouse model; format: in vivo, C57/BL6 mice (A2A-/- or Wild-Type)
Experimental: (§1) The C57/BL6 mouse melanoma cell line B16F10 CD73 was cultured in DMEM supplemented with 10% FCS, GlutaMAX, and penicillin/streptomycin. Tumor cells are periodically verified to be Mycoplasma negative by the Victorian Infectious Diseases References
(§2) Lab (Melbourne, VIC, Australia) by PCR analysis. 2×10^5 cells were resuspended in PBS and injected i.v. into C57/BL6 mice (A2A^−/− or Wild-Type) in a 200 μL volume. At day 14 lungs were excised and the number of metastases counted under the dissecting microscope. Mice were dosed with either SYN-115 (Batch 71236AA002) at 100 mg/kg or vehicle control once-daily via oral gavage on days 0 to 13. To calculate a dose of SYN-115 mouse weight was estimated to be 20 g per mouse. Therefore, 100 mg/kg=2 mg per mouse in 200 μL, which is equivalent to 10 mg/ml. To make up 40 mL, 400 milligrams of SYN-115 was weighed and added into a Falcon tube, then 1 mL of Tween 80 was added and mixed into a paste and then 39 mL of 1% Methyl Cellulose was added. The solution was vortexed and then left on a rotating mixer for at least 2 hours and maintained at 4° C.

[2] = tested on: CT26 colon carcinoma tumor; experiment: Example 7: SYN-115 dose range as single agent in the CT26 tumor mouse model (tumor area, survival); format: in vivo, BALB/c mice; parameters: key: tumor area in mm^2 (width × length)
Experimental: The BALB/c mouse colon carcinoma cell line CT26 was cultured in RPMI supplemented with 10% FCS, GlutaMAX, and penicillin/streptomycin. Tumor cells are periodically verified to be Mycoplasma negative by the Victorian Infectious Diseases References Lab (Melbourne, VIC, Australia) by PCR analysis. 1×10^5 cells were resuspended in PBS and injected s.c. into BALB/c mice in a 100 μL volume. At day 7 tumors were measured and mice were randomized into distinct treatment groups to ensure that each group had tumors of similar size at the onset of treatment. Mice were treated with SYN-115 (Batch 71236AA006) at the indicated dose or vehicle control once-daily via oral gavage on days 7 to 20. To calculate a dose of SYN-115 mouse weight was estimated to be 20 g per mouse. Therefore, 100 mg/kg=2 mg per mouse in 200 μL, which is equivalent to 10 mg/ml. To make up 40 mL, 400 milligrams of SYN-115 was weighed and added into a Falcon tube, then 1 mL of Tween 80 was added and mixed into a paste and then 39 mL of 1% Methyl Cellulose was added. The solution was vortexed and then left on a rotating mixer for at least 2 hours and maintained at 4° C. Tumor measurements were taken 2-3 times per week. Tumor sizes were determined by width * length and mice were culled when tumors reached the ethical limit of 150 mm^2.

[3] = tested on: B16F10 CD73 melanoma metastases; experiment: Example 8: number of lung tumor metastases in the B16F10 CD73 tumor mouse model; format: in vivo, C57/BL6 mice (A2A-/- or Wild-Type); conditions: 100 mg/kg once-daily oral gavage days 0 to 13, counted day 14, Batch 71236AA002
Experimental: as §1
as §2, with “At day 14, lungs were” for “At day 14 lungs were”, “dose of SYN-115, mouse weight” for “dose of SYN-115 mouse weight”, “up 40 mL 400 milligrams” for “up 40 mL, 400 milligrams”, “Tween 80 added and” for “Tween 80 was added and”, “was added. Solution was vortexed” for “was added. The solution was vortexed”, “left on rotating mixer” for “left on a rotating mixer”

[4] = Example 12: pharmacokinetics of tozadenant tablets (180 mg single dose, bioequivalence study) in humans; format: in vivo; conditions: both sexes, plasma, oral, 180 mg (approximately 2.6 mg/kg in 70 kg human)
Experimental: In a clinical study, tozadenant was administered PO as tablets under fasted conditions, as a single administration at 180 mg. This was an open-label, single-center, randomized, 2-treatment, 2-way crossover bioequivalence study testing 2 different tablet formulation of tozadenant. A modified formulation of tozadenant has been developed for use in Phase 3 studies. The modified formulation for use in Phase 3 studies contains four fewer excipients compared to the Phase 2 formulation. This study, therefore, evaluated the bioequivalence of the Phase 3 formulation and the Phase 2 formulation.
Thirty-six (36) healthy adult, non-tobacco using male and female subjects were enrolled to ensure completion by 32 subjects. […]
The following PK parameters were calculated from the individual plasma tozadenant concentration-time data. All PK parameters were calculated using Phoenix WinNonlin® Version 6.3. […] For the calculation of the PK parameters, concentration values below the limit of quantitation (BLQ) were treated as zero before the first quantifiable concentration and as missing thereafter. […]
AUC and Cmax parameters were not to be calculated for subjects with only 2 or less consecutive time points with detectable concentrations. […]
Tozadenant was quantitated using a validated liquid chromatography/tandem mass spectrometry method with a lower limit of quantitation (LLOQ) of 0.00500 μg/mL.

COc1ccc(N2CCOCC2)c2sc(NC(=O)N3CCC(C)(O)CC3)nc12 [SYN-115, 4-hydroxy-4-methyl-piperidine-1-carboxylic acid (4-methoxy-7-morpholin-4-yl-benzothiazol-2-yl)-amide]
Number of Tumor Metastases (lung), individual mice ([1]; 100 mg/kg once-daily oral gavage days 0 to 13, counted day 14, Batch 71236AA002): 53 and 108 and 107 and 61 and 72 and 64 and 40 and 24 and 56 and 82 | Efficacy on tumor metastases ([1]; SYN-115 100 mg/kg once-daily oral, days 0 to 13): No efficacy | Tumor area, individual mice ([2]; SYN-115 10 mg/kg, Day 0, 10 mg/kg): 4.86 and 6.44 and 7.56 and 8.37 and 8.84 and 11.2 | Tumor area, individual mice ([2]; SYN-115 10 mg/kg, Day 2, 10 mg/kg): 6.16 and 6.75 and 7.36 and 15.2 and 9.45 and 14.06 | Tumor area, individual mice ([2]; SYN-115 10 mg/kg, Day 4, 10 mg/kg): 15.75 and 12.16 and 22.55 and 23.52 and 8.36 and 26.95 | Tumor area, individual mice ([2]; SYN-115 10 mg/kg, Day 7, 10 mg/kg): 20.7 and 14.04 and 41.44 and 34.77 and 6.24 and 46.92 | Tumor area, individual mice ([2]; SYN-115 10 mg/kg, Day 9, 10 mg/kg): 30.53 and 22.09 and 52.08 and 50.37 and 0 and 66.99 | Tumor area, individual mice ([2]; SYN-115 10 mg/kg, Day 11, 10 mg/kg): 44.1 and 31.32 and 70.68 and 66.42 and 0 and 89.24 | Tumor area, individual mice ([2]; SYN-115 10 mg/kg, Day 14, 10 mg/kg): 52.8 and 48.96 and 108.1 and 114.45 and 0 and 125.08 | Tumor area, individual mice ([2]; SYN-115 10 mg/kg, Day 16, 10 mg/kg): 91.44 and 67.86 and 132.84 and 135.42 and 0 and 179.55 | Tumor area, individual mice ([2]; SYN-115 10 mg/kg, Day 18, 10 mg/kg): 136.71 and 100.98 and 202.5 and 119.88 and 0 | Tumor area, individual mice ([2]; SYN-115 10 mg/kg, Day 21, 10 mg/kg): 175.74 and 162 and 160 and 0 | Tumor area, individual mice ([2]; SYN-115 10 mg/kg, Day 25): 0 | Tumor area, individual mice ([2]; SYN-115 10 mg/kg, Day 29): 0 | Tumor area, individual mice ([2]; SYN-115 10 mg/kg, Day 32): 0 | Tumor area, individual mice ([2]; SYN-115 10 mg/kg, Day 35): 0 | Tumor area, individual mice ([2]; SYN-115 10 mg/kg, Day 37): 0 | Tumor area, individual mice ([2]; SYN-115 30 mg/kg, Day 0, 30 mg/kg): 5 (2×) and 6.24 and 7.56 and 8.7 and 12.48 | Tumor area, individual mice ([2]; SYN-115 30 mg/kg, Day 2, 30 mg/kg): 12.6 (2×) and 8.12 and 9.28 and 12.95 and 8.4 | Tumor area, individual mice ([2]; SYN-115 30 mg/kg, Day 4, 30 mg/kg): 21.6 (2×) and 15.96 and 13.65 and 24.48 and 10.56 | Tumor area, individual mice ([2]; SYN-115 30 mg/kg, Day 7, 30 mg/kg): 42.21 (2×) and 25 and 25.5 and 30.21 and 30.24 | Tumor area, individual mice ([2]; SYN-115 30 mg/kg, Day 9, 30 mg/kg): 50.16 (2×) and 35.4 and 29.68 and 47.61 and 31.9 | Tumor area, individual mice ([2]; SYN-115 30 mg/kg, Day 18, 30 mg/kg): 204.8 (2×) and 114 and 189.23 and 202.86 and 125.4 | Tumor area, individual mice ([2]; SYN-115 30 mg/kg, Day 21, 30 mg/kg): 153.4 and 179.4 | Raw Tumor Measurements ([2]; SYN-115 (1 mg/kg), Day 0, 1 mg/kg): 5.25 and 6.72 and 8.37 and 7.84 and 9.6 and 10.36 | Raw Tumor Measurements ([2]; SYN-115 (1 mg/kg), Day 2, 1 mg/kg): 12.95 and 12.54 and 15.6 and 13.6 and 12.71 and 15.84 | Raw Tumor Measurements ([2]; SYN-115 (1 mg/kg), Day 4, 1 mg/kg): 14.8 and 22.95 and 21 and 24.99 and 20.4 and 24.19 | Raw Tumor Measurements ([2]; SYN-115 (1 mg/kg), Day 16, 1 mg/kg): 144.1 and 103.55 and 103.74 and 155.61 | Raw Tumor Measurements ([2]; SYN-115 (1 mg/kg), Day 18, 1 mg/kg): 208.68 and 167.24 and 138.6 | Raw Tumor Measurements ([2]; SYN-115 (1 mg/kg), Day 21): 173.46 | Raw Tumor Measurements ([2]; SYN-115 (5 mg/kg), Day 0, 5 mg/kg): 4.8 and 7.8 and 7.54 and 8.84 | Raw Tumor Measurements ([2]; SYN-115 (5 mg/kg), Day 2, 5 mg/kg): 13.12 and 11.16 and 13.26 and 10.36 | Raw Tumor Measurements ([2]; SYN-115 (5 mg/kg), Day 4, 5 mg/kg): 20.8 and 11.2 and 18.45 and 19.52 | Raw Tumor Measurements ([2]; SYN-115 (5 mg/kg), Day 25, 5 mg/kg): 163.8 and 83.52 | Raw Tumor Measurements ([2]; SYN-115 (5 mg/kg), Day 29): 101.76 | Raw Tumor Measurements ([2]; SYN-115 (5 mg/kg), Day 32): 124.74 | Raw Tumor Measurements ([2]; SYN-115 (5 mg/kg), Day 35): 146.52 | Raw Tumor Measurements ([2]; SYN-115 (5 mg/kg), Day 37): 161.59 | Number of Tumor Metastases (lung), individual mice [3]: 21 and 1 (2×) and 5 and 11 and 13 and 28 and 2 and 8 | AUC [4]: 20600 ng·h/mL
